Data taken from patent US20240247080A1, “GLP1/GIP/NPY2 RECEPTOR TRIPLE AGONISTS” (Boehringer Ingelheim International GmbH, priority 2022, published 2024).
Read-outs that look alike come from different tables or passages of the source. Starred links: 1 amine or outer side, 2 acyl side, 3 side chain; linkers in the order of their positions; H or OH if unused. Non-standard residues stand in square brackets, D forms with d. Groups on a side chain read outwards from the residue. No end group written: not given here. *: point of attachment. C20 diacid = O=C(O)CCCCCCCCCCCCCCCCCCC(=O)*; C18 diacid = O=C(O)CCCCCCCCCCCCCCCCC(=O)*; γGlu = O=C(O)[C@H](CCC(=O)[*:2])N[*:1]; εLys = N[C@@H](CCCCN[*:1])C(=O)[*:2]; AEEA = NCCOCCOCC(=O)O; Aib = CC(C)(N)C(=O)O; Ahx = NCCCCCC(=O)O

Columns and labels:
[1] = biological target: T1, hGIPR (Homo sapiens, UniProt P48546); experiment: hGIPR CreLuc reporter gene assay in 0.5% and 100% plasma; assay type: cell-based; conditions: CreLuc reporter gene assay
T1 construct: expressed in transfected cells; host or cells: CHO cells carrying a CRE-luciferase reporter gene
T1 sequence (P48546 22-466): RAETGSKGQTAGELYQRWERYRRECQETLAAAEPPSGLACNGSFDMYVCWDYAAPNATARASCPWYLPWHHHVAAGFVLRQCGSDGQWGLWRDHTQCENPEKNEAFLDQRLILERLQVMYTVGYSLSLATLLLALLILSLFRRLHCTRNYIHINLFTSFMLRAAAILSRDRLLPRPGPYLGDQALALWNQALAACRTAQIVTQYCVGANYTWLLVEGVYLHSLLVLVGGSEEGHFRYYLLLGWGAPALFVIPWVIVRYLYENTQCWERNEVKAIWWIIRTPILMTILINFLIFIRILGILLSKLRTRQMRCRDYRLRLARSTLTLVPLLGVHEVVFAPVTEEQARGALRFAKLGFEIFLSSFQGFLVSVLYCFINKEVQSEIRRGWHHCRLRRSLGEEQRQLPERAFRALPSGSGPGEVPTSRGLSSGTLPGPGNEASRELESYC
Method in brief: (§1)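 HEK cells (GLP-1R, NPY2R) or CHO cells (GIPR) carrying a CRE-luciferase reporter, incubated 4 h at 37 °C with peptides in HBSS/20 mM HEPES pH 7.4 plus 0.5% human plasma, or in 100% plasma. Luminescence read; EC50 from 8-point variable-slope sigmoid fits.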

[2] = biological target: T2, hNPY2R (Homo sapiens, UniProt P49146); experiment: hNPY2R CreLuc reporter gene assay in 0.5% and 100% plasma; assay type: cell-based; conditions: CreLuc reporter gene assay
T2 construct: expressed in transfected cells; host or cells: HEK-293 cells carrying a CRE-luciferase reporter gene
T2 sequence (P49146 1-381): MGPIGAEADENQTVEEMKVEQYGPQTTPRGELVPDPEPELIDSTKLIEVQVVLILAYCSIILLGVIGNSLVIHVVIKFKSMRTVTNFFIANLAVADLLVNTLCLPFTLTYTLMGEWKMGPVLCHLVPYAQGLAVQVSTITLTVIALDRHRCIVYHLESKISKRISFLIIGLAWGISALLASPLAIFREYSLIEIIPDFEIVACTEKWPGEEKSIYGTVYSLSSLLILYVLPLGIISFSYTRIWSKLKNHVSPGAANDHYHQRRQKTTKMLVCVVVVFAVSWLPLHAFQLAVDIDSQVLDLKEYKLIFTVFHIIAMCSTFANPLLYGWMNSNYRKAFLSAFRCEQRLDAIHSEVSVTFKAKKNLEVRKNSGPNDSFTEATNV
Method in brief: as §1

[3] = Mouse PK after intravenous application; assay type: in vivo; conditions: plasma, mean residence time, intravenous 30-60 nmol/kg, male NMRI mice
Description: Pharmacokinetic parameters of the peptides were determined after intravenous application to NMRI mice. Male NMRI mice were obtained from Janvier Laboratories (France) weighing 30 to 40 g. Mice were housed in standard cages with a 12:12 hour light:dark cycle and standard food and water access ad libitum. Each test peptide was dissolved in 50 mM phosphate buffer (pH 7.4)/3.5% mannitol. Intravenous application of 30-60 nmol/kg was performed via the tail vein. Serial blood samples from conscious mice were collected from the saphenous vein in EDTA-containing vials at different time points up to 56 hours post-dosing. Subsequently, plasma was prepared by centrifugation for 5 min at approximately 5000 rpm and stored at −20° C. until quantification of the peptide plasma levels by liquid chromatography mass spectrometry (LC-MS). Individual plasma concentration—time profiles were analysed by a non-compartmental approach and the resulting pharmacokinetic parameters were calculated.

[4] = biological target: T3, hGLP1R (Homo sapiens, UniProt P43220); experiment: hGLP1R CreLuc reporter gene assay in 0.5% and 100% plasma; assay type: cell-based; conditions: CreLuc reporter gene assay
T3 construct: expressed in transfected cells; host or cells: HEK-293 cells carrying a CRE-luciferase reporter gene
Method in brief: as §1

[5] = 0.5% human plasma, read-out: hGIPR 0.5% hP
[6] = 100% human plasma, read-out: hGIPR 100% hP
[7] = 0.5% human plasma, read-out: hNPY2R 0.5% hP
[8] = 0.5% human plasma, read-out: hGLP1R 0.5% hP
[9] = 100% human plasma, read-out: hGLP1R 100% hP
[10] = 100% human plasma, read-out: hNPY2R 100% hP

T3 sequence (P43220 24-463): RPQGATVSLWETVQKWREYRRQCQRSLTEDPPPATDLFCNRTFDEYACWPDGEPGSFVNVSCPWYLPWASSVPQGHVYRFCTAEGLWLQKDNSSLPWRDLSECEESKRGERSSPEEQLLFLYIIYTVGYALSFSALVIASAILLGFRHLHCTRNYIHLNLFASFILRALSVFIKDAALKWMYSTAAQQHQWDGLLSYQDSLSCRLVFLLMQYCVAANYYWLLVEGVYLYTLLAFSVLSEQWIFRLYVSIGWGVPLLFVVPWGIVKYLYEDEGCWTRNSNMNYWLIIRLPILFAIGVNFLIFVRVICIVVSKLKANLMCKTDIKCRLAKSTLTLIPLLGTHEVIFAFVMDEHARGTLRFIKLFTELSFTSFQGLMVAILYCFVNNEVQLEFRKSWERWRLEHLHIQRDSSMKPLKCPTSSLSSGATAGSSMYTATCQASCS

Work on `CC[C@H](C)[C@H](NC(=O)[C@H](CC(C)C)NC(=O)[C@H](Cc1c[nH]c2ccccc12)NC(=O)[C@H](CCC(=O)O)NC(=O)[C@@H](NC(=O)[C@H](Cc1ccccc1)NC(=O)[C@H](C)NC(=O)C(C)(C)NC(=O)[C@H](CCC(N)=O)NC(=O)[C@H](C)NC(=O)[C@H](CCC(N)=O)NC(=O)[C@H](CCCCN)NC(=O)[C@H](CCC(=O)O)NC(=O)[C@H](CC(C)C)NC(=O)C(C)(C)NC(=O)[C@@H](NC(=O)[C@H](CO)NC(=O)[C@H](Cc1ccc(O)cc1)NC(=O)[C@H](CC(=O)O)NC(=O)[C@H](CO)NC(=O)[C@@H](NC(=O)[C@H](Cc1ccccc1)NC(=O)[C@@H](NC(=O)CNC(=O)[C@H](CCC(=O)O)NC(=O)C(C)(C)NC(=O)[C@@H](N)Cc1ccc(O)cc1)[C@@H](C)O)[C@@H](C)O)[C@@H](C)CC)C(C)C)C(=O)N[C@@H](CCCCNC(=O)[C@@H](N)CCCCNC(=O)CC[C@H](NC(=O)CC[C@H](NC(=O)CC[C@H](NC(=O)CC[C@H](NC(=O)CC[C@H](NC(=O)CC[C@H](NC(=O)CCCCCCCCCCCCCCCCCCC(=O)O)C(=O)O)C(=O)O)C(=O)O)C(=O)O)C(=O)O)C(=O)O)C(=O)NCC(=O)NCC(=O)N1CCC[C@H]1C(=O)N[C@@H](CO)C(=O)N[C@@H](CO)C(=O)NCC(=O)N[C@@H](C)C(=O)N[C@@H](CO)C(=O)N[C@@H](CC(C)C)C(=O)N[C@@H](CCCNC(=N)N)C(=O)N[C@@H](Cc1c[nH]cn1)C(=O)N[C@@H](Cc1ccc(O)cc1)C(=O)N[C@@H](Cc1ccc(O)cc1)C(=O)N[C@@H](CC(N)=O)C(=O)N[C@@H](Cc1c[nH]c2ccccc12)C(=O)N[C@@H](CC(C)C)C(=O)N[C@H](C(=O)N[C@@H](CCCNC(=N)N)C(=O)N[C@@H](CCC(N)=O)C(=O)N[C@@H](CCCNC(=N)N)C(=O)N[C@H](Cc1ccc(O)cc1)C(N)=O)[C@@H](C)O` [Compound 214, Y-Aib-E-G-T-F-T-S-D-Y-S-I-Aib-L-E-K-Q-A-Q-Aib-A-F-V-E-W-L-I-K(1,3)-GGPSSGASLRHYYNWLTRQR-DTyr-NH2.C20DA-gGlu-gGlu-gGlu-gGlu-gGlu-gGlu-eLys(1,2)] yielded an EC50 [1, 5] of 0.23 nM, an EC50 [1, 6] of 1.81 nM and an EC50 [2, 7] greater than 99.9 nM. The MRT [3] was 10.1 h, the EC50 [4, 8] was 0.19 nM and the EC50 [4, 9] was 2.65 nM.
`CC[C@H](C)[C@H](NC(=O)[C@H](CC(C)C)NC(=O)[C@H](Cc1c[nH]c2ccccc12)NC(=O)[C@H](CCC(=O)O)NC(=O)[C@@H](NC(=O)[C@H](Cc1ccccc1)NC(=O)[C@H](CCC(=O)O)NC(=O)C(C)(C)NC(=O)[C@H](CCC(N)=O)NC(=O)[C@H](C)NC(=O)[C@H](CCC(N)=O)NC(=O)[C@H](CCCCN)NC(=O)[C@H](CCC(=O)O)NC(=O)[C@H](CC(C)C)NC(=O)C(C)(C)NC(=O)[C@@H](NC(=O)[C@H](CO)NC(=O)[C@H](Cc1ccc(O)cc1)NC(=O)[C@H](CC(=O)O)NC(=O)[C@H](CO)NC(=O)[C@@H](NC(=O)[C@H](Cc1ccccc1)NC(=O)[C@@H](NC(=O)CNC(=O)[C@H](CCC(=O)O)NC(=O)C(C)(C)NC(=O)[C@@H](N)Cc1ccc(O)cc1)[C@@H](C)O)[C@@H](C)O)[C@@H](C)CC)C(C)C)C(=O)N[C@@H](CCCCNC(=O)[C@@H](N)CCCCNC(=O)CC[C@H](NC(=O)CC[C@H](NC(=O)CC[C@H](NC(=O)CC[C@H](NC(=O)CC[C@H](NC(=O)CC[C@H](NC(=O)CCCCCCCCCCCCCCCCC(=O)O)C(=O)O)C(=O)O)C(=O)O)C(=O)O)C(=O)O)C(=O)O)C(=O)NCC(=O)NCC(=O)N1CCC[C@H]1C(=O)N[C@@H](CO)C(=O)N[C@@H](CCC(=O)O)C(=O)NCC(=O)N[C@@H](C)C(=O)N[C@@H](CO)C(=O)N[C@@H](CC(C)C)C(=O)N[C@@H](CCCNC(=N)N)C(=O)N[C@@H](Cc1c[nH]cn1)C(=O)N[C@@H](Cc1ccc(O)cc1)C(=O)N[C@@H](Cc1ccc(O)cc1)C(=O)N[C@@H](CC(N)=O)C(=O)N[C@@H](Cc1c[nH]c2ccccc12)C(=O)N[C@@H](CC(C)C)C(=O)N[C@H](C(=O)N[C@@H](CCCNC(=N)N)C(=O)N[C@@H](CCC(N)=O)C(=O)N[C@@H](CCCNC(=N)N)C(=O)N[C@@H](Cc1ccc(O)cc1)C(N)=O)[C@@H](C)O` [Compound 255, Y-Aib-E-G-T-F-T-S-D-Y-S-I-Aib-L-E-K-Q-A-Q-Aib-E-F-V-E-W-L-I-K(1,3)-GGPSEGASLRHYYNWLTRQRY-NH2.C18DA-gGlu-gGlu-gGlu-gGlu-gGlu-gGlu-eLys(1,2)] showed an EC50 [1, 5] of 0.46 nM, an EC50 [1, 6] of 1.23 nM and an EC50 [2, 7] of 17.3 nM. For the same molecule, the MRT [3] was 11 h and the EC50 [4, 8] was 0.34 nM.
“H-Y[Aib]EGTFTSDYSI[Aib]LEKQAQ[Aib]AFVQWLIK([Ahx-γGlu-γGlu-γGlu-γGlu-γGlu-γGlu-C18 diacid])GGPSSGASLRHYYNWLTRQRY-NH2 [Compound 139, Y-Aib-E-G-T-F-T-S-D-Y-S-I-Aib-L-E-K-Q-A-Q-Aib-A-F-V-Q-W-L-I-K(1,3)-GGPSSGASLRHYYNWLTRQRY-NH2.C18DA-gGlu-gGlu-gGlu-gGlu-gGlu-gGlu-AHX(1,2)]” showed an EC50 [1, 5] of 0.22 nM, an EC50 [1, 6] of 1.04 nM and an EC50 [2, 7] of 18.3 nM. It also gave an MRT [3] of 10 h and an EC50 [4, 8] of 0.07 nM.
“Y[Aib]EGTFTSDYSI[Aib]LEKQAQ[Aib]AFVEWLIK([AEEA-AEEA-γGlu-γGlu-γGlu-γGlu-C18 diacid])GGPSEGASLRHYYNWLTRQRY-NH2 [Compound 297, Y-Aib-E-G-T-F-T-S-D-Y-S-I-Aib-L-E-K-Q-A-Q-Aib-A-F-V-E-W-L-I-K(1,3)-GGPSEGASLRHYYNWLTRQRY-NH2.C18DA-gGlu-gGlu-gGlu-gGlu-OEG-OEG(1,2)]” gave an EC50 [1, 5] of 0.25 nM, an EC50 [1, 6] of 0.93 nM and an EC50 [2, 10] of 40.5 nM. For the same molecule, the MRT [3] was 7.5 h and the EC50 [4, 8] was 0.12 nM.
Work on “Y[Aib]EGTFTSDYSI[Aib]LEKQAQ[Aib]AFVEWLIK([εLys-γGlu-γGlu-γGlu-γGlu-γGlu-γGlu-γGlu-C20 diacid])GGPSSGASLRHYYNWLTRQRY-NH2 [Compound 225, Y-Aib-E-G-T-F-T-S-D-Y-S-I-Aib-L-E-K-Q-A-Q-Aib-A-F-V-E-W-L-I-K(1,3)-GGPSSGASLRHYYNWLTRQRY-NH2.C20DA-gGlu-gGlu-gGlu-gGlu-gGlu-gGlu-gGlu-eLys(1,2)]” yielded an EC50 [1, 5] of 0.28 nM, an EC50 [1, 6] of 1.23 nM and an EC50 [2, 7] of 14.9 nM. For the same molecule, the MRT [3] was 13 h and the EC50 [4, 8] was 0.12 nM.
“Y[Aib]EGTFTSDYSI[Aib]LEKQAQ[Aib]AFVQWLIK([γGlu-γGlu-γGlu-γGlu-γGlu-γGlu-C20 diacid])GGPSEGASLRHYYNWLTRQRY-NH2 [Compound 223, Y-Aib-E-G-T-F-T-S-D-Y-S-I-Aib-L-E-K-Q-A-Q-Aib-A-F-V-Q-W-L-I-K(1,3)-GGPSEGASLRHYYNWLTRQRY-NH2.C20DA-gGlu-gGlu-gGlu-gGlu-gGlu-gGlu(1,2)]” gave an EC50 [1, 5] of 0.39 nM, an EC50 [2, 7] of 13.2 nM and an MRT [3] of 8.8 h. For the same molecule, the EC50 [4, 8] was 0.18 nM and the EC50 [4, 9] was 4.39 nM.
“Y[Aib]EGTFTSDYSI[Aib]LEKQAQ[Aib]AFVQWLIK([εLys-γGlu-γGlu-γGlu-γGlu-γGlu-γGlu-γGlu-C20 diacid])GGPSEGASLRHYYNWLTRQRY-NH2 [Compound 224, Y-Aib-E-G-T-F-T-S-D-Y-S-I-Aib-L-E-K-Q-A-Q-Aib-A-F-V-Q-W-L-I-K(1,3)-GGPSEGASLRHYYNWLTRQRY-NH2.C20DA-gGlu-gGlu-gGlu-gGlu-gGlu-gGlu-gGlu-eLys(1,2)]” showed an EC50 [1, 5] of 0.43 nM, an EC50 [2, 7] of 10.6 nM and an EC50 [2, 10] of 31.6 nM. It also gave an MRT [3] of 10.2 h and an EC50 [4, 8] of 0.13 nM.
